Measured values taken from patent US20040044008A1, “Use of therapeutic benzamide derivatives” (priority 2000, published 2004).

These molecules were tested against human MTP (Homo sapiens, UniProt P55157) (assay: human MTP activity assay (SPA, 3H-triolein transfer between liposomes)). Conditions: human MTP-mediated 3H-triolein transfer from donor to acceptor liposomes, 25 min incubation at 37° C., streptavidin-SPA beads.
Type: biochemical
Description: Such derivatives are clear to those skilled in the art, without undue experimentation, and with reference to the teaching of Burger's Medicinal Chemistry And Drug Discovery, 5th Edition, Vol 1: Principles And Practice, which is incorporated herein by reference. […] MTP inhibitors may be used in the treatment of non-insulin dependent diabetes mellitus, insulin resistance, coronary heart disease, prevention of stroke, pancreatitis, hypercholesterolemia, hypertriglyceridemia, hyperlipemia, mixed dyslipidemia, post-prandial hyperlipemia, atherosclerosis and obesity. The ability of the compounds of this invention to inhibit human MTP activity is measured by an in vitro assay where MTP transfers 3H-triolein between phosphatidylcholine liposomes. The specificity of the compounds of the invention is established by comparing the effects on apoB-100 and apoprotein A-1 production. A specificity of at least 100 is preferred.
The human MTP activity assay was established using SPA technology. Donor liposomes were prepared with 3H-triolein and phosphatidylcholine, while acceptor liposomes contained biotinylated phosphatidylethanolamine and phosphatidylcholine. The MTP-mediated 3H-triolein transfer onto acceptor liposomes was allowed by a 25 min incubation at 37° C., and quantified by the addition of streptavidin-SPA beads.

Chain of human MTP (P55157 19-894): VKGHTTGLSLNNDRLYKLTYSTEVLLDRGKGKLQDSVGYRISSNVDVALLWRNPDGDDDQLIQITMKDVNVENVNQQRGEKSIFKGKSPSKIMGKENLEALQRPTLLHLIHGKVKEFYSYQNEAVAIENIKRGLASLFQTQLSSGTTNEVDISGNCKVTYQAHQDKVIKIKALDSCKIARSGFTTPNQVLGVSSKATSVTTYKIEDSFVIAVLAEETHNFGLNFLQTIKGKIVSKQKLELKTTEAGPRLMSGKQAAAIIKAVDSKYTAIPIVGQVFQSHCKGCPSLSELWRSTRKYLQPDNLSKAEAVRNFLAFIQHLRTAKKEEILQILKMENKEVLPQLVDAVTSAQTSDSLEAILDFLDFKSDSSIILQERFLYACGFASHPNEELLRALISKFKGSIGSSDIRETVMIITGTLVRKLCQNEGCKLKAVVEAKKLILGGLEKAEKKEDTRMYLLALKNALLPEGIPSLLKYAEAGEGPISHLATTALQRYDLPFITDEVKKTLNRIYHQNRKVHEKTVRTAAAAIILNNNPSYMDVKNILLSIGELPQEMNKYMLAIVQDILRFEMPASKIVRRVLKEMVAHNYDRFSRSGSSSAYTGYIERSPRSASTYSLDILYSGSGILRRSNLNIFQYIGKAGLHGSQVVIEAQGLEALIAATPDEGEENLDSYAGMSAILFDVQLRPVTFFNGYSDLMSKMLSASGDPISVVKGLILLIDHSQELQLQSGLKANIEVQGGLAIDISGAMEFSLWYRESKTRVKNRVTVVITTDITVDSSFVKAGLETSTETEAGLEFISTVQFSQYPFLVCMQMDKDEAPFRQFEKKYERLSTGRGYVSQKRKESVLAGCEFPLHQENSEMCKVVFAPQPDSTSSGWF
Chain of human MTP (P07237 18-508 partner): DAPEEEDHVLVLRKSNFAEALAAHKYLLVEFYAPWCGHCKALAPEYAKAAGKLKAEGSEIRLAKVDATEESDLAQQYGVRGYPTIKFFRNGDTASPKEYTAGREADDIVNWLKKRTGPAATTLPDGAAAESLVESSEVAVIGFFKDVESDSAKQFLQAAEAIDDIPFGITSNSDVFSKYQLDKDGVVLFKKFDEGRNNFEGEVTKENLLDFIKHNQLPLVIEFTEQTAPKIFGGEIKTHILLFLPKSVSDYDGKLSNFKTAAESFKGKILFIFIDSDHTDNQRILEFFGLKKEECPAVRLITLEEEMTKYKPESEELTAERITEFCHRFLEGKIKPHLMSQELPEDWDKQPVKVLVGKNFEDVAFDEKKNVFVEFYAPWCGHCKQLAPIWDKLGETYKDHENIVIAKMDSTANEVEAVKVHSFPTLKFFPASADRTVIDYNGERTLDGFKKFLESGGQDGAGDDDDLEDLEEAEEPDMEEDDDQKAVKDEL

Row | IC50 [nM] | Molecule
1 | 0.3 | Cc1ccc(C(=O)Nc2ccc(N3CCN(Cc4cccc(C#N)c4)CC3)cc2)c(-c2ccc(C(C)C)cc2)c1 [Example 2, 4′-Isopropyl-5-methyl-biphenyl-2-carboxylic acid [4-[4-(3-cyano-benzyl)-piperazin-1-yl]-phenyl]-amide]
2 | 0.2 | Cc1noc(-c2cccc(CN3CCN(c4ccc(NC(=O)c5cccc(C)c5-c5ccc(C(C)C)cc5)cc4)CC3)c2)n1 [Example 61, 4′-Isopropyl-6-methyl-biphenyl-2-carboxylic acid (4-(4-(3-(3-methyl-[1,2,4]oxadiazol-5-yl)-benzyl)-piperazine-1-yl)-phenyl)-amide]
3 | 0.3 | Cc1cccc(C(=O)Nc2ccc(N3CCN(CC(N)=O)CC3)cc2)c1-c1ccc(C(C)C)cc1 [Example 39, 4′-Isopropyl-6-methyl-biphenyl-2-carboxylic acid (4-(4-carbamoylmethyl-piperazin-1-yl)-phenyl]-amide]
4 | 0.3 | O=C(Nc1ccc(N2CCN(Cc3ccc[nH]3)CC2)cc1)c1ccccc1-c1ccc(C(F)(F)F)cc1 [Example 62, 4′-Trifluoromethyl-biphenyl-2-carboxylic acid [4-(4-(1H-pyrrol-2-ylmethyl)-piperazin-1-yl)-phenyl]-amide]
5 | 0.2 | Cc1cccc(C(=O)Nc2ccc(N3CCN(Cc4cccc(C#N)c4)CC3)cc2)c1-c1ccc(C(F)(F)F)cc1 [Example 5, 6-Methyl-4′-trifluoromethyl-biphenyl-2-carboxylic acid [4-[4-(3-cyano-benzyl)-piperazin-1-yl]-phenyl]-amide]
6 | 8 | NC(=O)CN1CCN(c2ccc(NC(=O)c3ccccc3-c3ccc(C(F)(F)F)cc3)cc2)CC1 [Example 37, 4′-Trifluoromethyl-biphenyl-2-carboxylic acid [4-(4-carbamoylmethyl-piperazin-1-yl)-phenyl]-amide]
7 | 0.7 | Cc1ccc(C(=O)Nc2ccc(N3CCN(Cc4ccc[nH]4)CC3)cc2)c(-c2ccc(C(C)C)cc2)c1 [Example 63, 4′-Isopropyl-5-methyl-biphenyl-2-carboxylic acid [4-(4-(1H-pyrrol-2-ylmethyl)-piperazin-1-yl)-phenyl]-amide]

Row | Molecule | IC50 [nM]
8 | 5-Methyl-4′-trifluoromethyl-biphenyl-2-carboxylic acid [-(4-(1H-pyrrol-2-ylmethyl)-piperazin-1-yl)-phenyl]-amide [Example 64] | 0.26
